{"source": "paper PMC6193035", "about": "“Novel small molecules affecting cell membrane as potential therapeutics for avian pathogenic Escherichia coli” (Scientific Reports, 2018)", "assay_type_in_all_cases": "cell-based, Escherichia coli", "key": {"E. coli ATCC 25922": {"test_system": "E. coli ATCC 25922", "assay": "Antimicrobial susceptibility, quality control strain (CLSI)", "settings": "E. coli ATCC 25922 quality control strain, CAMHB", "description": "(§1) Initially, antimicrobial susceptibility profile was established for all the tested APEC serotypes using cation-adjusted Muller-Hinton broth (CAMHB) micro-dilution method according to clinical and laboratory standards institute (CLSI) guidelines."}, "APEC O2": {"test_system": "APEC O2", "assay": "Antimicrobial susceptibility, CAMHB micro-dilution (CLSI)", "settings": "(R) = resistant", "description": "as §1"}, "APEC O35": {"test_system": "APEC O35", "assay": "Antimicrobial susceptibility, CAMHB micro-dilution (CLSI)", "settings": "(R) = resistant", "description": "as §1"}, "APEC O18": {"test_system": "APEC O18", "assay": "Antimicrobial susceptibility, CAMHB micro-dilution (CLSI)", "settings": "(R) = resistant", "description": "as §1"}, "APEC O1": {"test_system": "APEC O1", "assay": "Antimicrobial susceptibility, CAMHB micro-dilution (CLSI)", "settings": "(R) = resistant", "description": "as §1"}, "APEC O78 [1]": {"test_system": "APEC O78", "assay": "Antimicrobial susceptibility, CAMHB micro-dilution (CLSI)", "settings": "(R) = resistant", "description": "as §1"}, "APEC O115": {"test_system": "APEC O115", "assay": "Antimicrobial susceptibility, CAMHB micro-dilution (CLSI)", "settings": "(R) = resistant", "description": "as §1"}, "APEC O78-53": {"test_system": "APEC O78-53", "assay": "Antimicrobial susceptibility, CAMHB micro-dilution (CLSI)", "settings": "APEC O78-53, CAMHB, (R) = resistant", "description": "as §1"}, "APEC O15": {"test_system": "APEC O15", "assay": "Antimicrobial susceptibility, CAMHB micro-dilution (CLSI)", "settings": "(R) = resistant", "description": "as §1"}, "APEC O2-211": {"test_system": "APEC O2-211", "assay": "Antimicrobial susceptibility, CAMHB micro-dilution (CLSI)", "settings": "APEC O2-211, CAMHB, (R) = resistant", "description": "as §1"}, "APEC O8": {"test_system": "APEC O8", "assay": "Antimicrobial susceptibility, CAMHB micro-dilution (CLSI)", "settings": "(R) = resistant", "description": "as §1"}, "APEC O109": {"test_system": "APEC O109", "assay": "Antimicrobial susceptibility, CAMHB micro-dilution (CLSI)", "settings": "(R) = resistant", "description": "as §1"}, "APEC O1-63": {"test_system": "APEC O1-63", "assay": "Antimicrobial susceptibility, CAMHB micro-dilution (CLSI)", "settings": "APEC O1-63, CAMHB, (R) = resistant", "description": "as §1"}, "APEC O78 [2]": {"test_system": "APEC O78", "assay": "Primary screening, growth inhibition of APEC O78", "settings": "separate experiment, DMSO 1% to 32%, M63 media, 12 h", "description": "To identify the APEC growth inhibitors, SM library was screened against APEC O78 which is one of the most frequently isolated APEC serotypes from avian colibacillosis cases. One microlitre SMs (final concentration of 100 µM) were added using a slotted pin tool (V and P Scientific, San Diego, CA, USA) to the wells of the 96-well plate containing 100 µL of overnight grown 0.05 OD600 (7 × 10^7 CFU/mL) adjusted APEC culture. Controls (four replicates/plate) containing 1 µL of 100% DMSO (final concentration of 1%), 1 µL chloramphenicol (CHL, #C0378 Sigma-Aldrich) (20 µg/mL), 1 µL kanamycin (KAN, #60615 Sigma-Aldrich) (50 µg/mL), and 100 µL of M63 media were included. To determine the effect of DMSO on APEC growth, antimicrobial activity of DMSO was determined at different concentrations (1% to 32%) in a separate experiment. Plate was then incubated at 37 °C for 12 h in Sunrise - Absorbance microplate reader (Tecan Group Ltd. San Jose, CA) with kinetic OD600 measurement every 30 mins. The quality of screening was assessed by calculating the Z′-score as described previously. The growth inhibition of APEC was calculated by using the formula as previously described[13],[14]. The SMs inhibiting at least 80% of the APEC growth were selected as primary hits. […]"}, "APEC O78 [3]": {"test_system": "APEC O78", "assay": "Loss of 260/280 nm absorbing materials assay", "settings": "2X MBC, 1 h", "description": "(§2) Membrane permeability assays (crystal violet (CV) uptake and loss of 260/280 nm absorbing materials) were conducted as described previously. […] CV uptake was measured using the formula: (OD DMSO − OD SM/OD DMSO × 100). Two independent experiments in duplicates were conducted."}, "APEC O78 [4]": {"test_system": "APEC O78", "assay": "Crystal violet (CV) uptake assay", "settings": "2X MBC, 30 mins; P < 0.05, Student's t-test", "description": "as §2"}, "[5]": {"settings": "Escherichia coli, ATCC25922, read-out: MIC"}, "[6]": {"settings": "Escherichia coli, read-out: MIC"}}, "note": "Read-outs that look alike come from different tables or passages of the source. Marks after values point to notes of the source that are not given here.", "data": [{"compound": "CC1(C)S[C@@H]2[C@H](NC(=O)[C@H](N)c3ccccc3)C(=O)N2[C@H]1C(=O)O", "note": "[Ampicillin, ampicillin]", "values": [{"measurement": "MIC", "setting": "E. coli ATCC 25922; [5]", "result": 8, "unit": "µg/mL"}, {"measurement": "MIC", "setting": "APEC O2; [6]", "result": "> 64", "unit": "µg/mL"}, {"measurement": "MIC", "setting": "APEC O35; [6]", "result": 2, "unit": "µg/mL"}, {"measurement": "MIC", "setting": "APEC O18; [6]", "result": 4, "unit": "µg/mL"}, {"measurement": "MIC", "setting": "APEC O1; [6]", "result": "> 64", "unit": "µg/mL"}, {"measurement": "MIC", "setting": "APEC O78 [1]; [6]", "result": "> 64", "unit": "µg/mL"}, {"measurement": "MIC", "setting": "APEC O115; [6]", "result": "> 64", "unit": "µg/mL"}, {"measurement": "MIC", "setting": "APEC O78-53; [6]", "result": 4, "unit": "µg/mL"}, {"measurement": "MIC", "setting": "APEC O15; [6]", "result": 2, "unit": "µg/mL"}, {"measurement": "MIC", "setting": "APEC O2-211; [6]", "result": 4, "unit": "µg/mL"}, {"measurement": "MIC", "setting": "APEC O8; [6]", "result": 4, "unit": "µg/mL"}, {"measurement": "MIC", "setting": "APEC O109; [6]", "result": "> 64", "unit": "µg/mL"}, {"measurement": "MIC", "setting": "APEC O1-63; [6]", "result": 4, "unit": "µg/mL"}]}, {"compound": "C[S+](C)[O-]", "note": "[DMSO, dimethyl sulfoxide]", "values": [{"measurement": "DMSO concentration inhibitory to APEC", "setting": "APEC O78 [2]", "result": "≥ 8", "unit": "%"}]}, {"compound": "O=C(O)CN(CCN(CC(=O)O)CC(=O)O)CC(=O)O", "note": "[EDTA, ethylenediaminetetraacteic acid, reference compound]", "values": [{"measurement": "260 nm absorbing materials in supernatant compared with DMSO", "setting": "APEC O78 [3]", "result": "significantly (P < 0.05, Student’s t-test) increased"}, {"measurement": "Absorbance 280 nm of treated supernatant", "setting": "APEC O78 [3]; DMSO 2.58, superscript a P < 0.05 vs DMSO", "result": 2.60}, {"measurement": "Absorbance 260 nm of treated supernatant", "setting": "APEC O78 [3]; DMSO 3.77, superscript a P < 0.05 vs DMSO", "result": "4.00^a"}, {"measurement": "uptake of crystal violet compared with DMSO", "setting": "APEC O78 [4]", "result": "increased the uptake of crystal violet"}]}, {"compound": "CN(C)[C@@H]1C(O)=C(C(N)=O)C(=O)[C@@]2(O)C(O)=C3C(=O)c4c(O)cccc4[C@@](C)(O)[C@H]3C[C@@H]12", "note": "[Tetracycline, tetracycline]", "values": [{"measurement": "MIC", "setting": "E. coli ATCC 25922; [5]", "result": 0.5, "unit": "µg/mL"}, {"measurement": "MIC", "setting": "APEC O2; [6]", "result": "> 64", "unit": "µg/mL"}, {"measurement": "MIC", "setting": "APEC O35; [6]", "result": 1, "unit": "µg/mL"}, {"measurement": "MIC", "setting": "APEC O18; [6]", "result": 2, "unit": "µg/mL"}, {"measurement": "MIC", "setting": "APEC O1; [6]", "result": "> 64", "unit": "µg/mL"}, {"measurement": "MIC", "setting": "APEC O78 [1]; [6]", "result": 32, "unit": "µg/mL"}, {"measurement": "MIC", "setting": "APEC O115; [6]", "result": "> 64", "unit": "µg/mL"}, {"measurement": "MIC", "setting": "APEC O78-53; [6]", "result": "> 64", "unit": "µg/mL"}, {"measurement": "MIC", "setting": "APEC O15; [6]", "result": "> 64", "unit": "µg/mL"}, {"measurement": "MIC", "setting": "APEC O2-211; [6]", "result": "> 64", "unit": "µg/mL"}, {"measurement": "MIC", "setting": "APEC O8; [6]", "result": "> 64", "unit": "µg/mL"}, {"measurement": "MIC", "setting": "APEC O109; [6]", "result": 1, "unit": "µg/mL"}, {"measurement": "MIC", "setting": "APEC O1-63; [6]", "result": 16, "unit": "µg/mL"}]}, {"compound": "colistin", "values": [{"measurement": "MIC", "setting": "E. coli ATCC 25922", "result": 1, "unit": "µg/mL"}, {"measurement": "MIC", "setting": "APEC O2", "result": 0.5, "unit": "µg/mL"}, {"measurement": "MIC", "setting": "APEC O35", "result": 1, "unit": "µg/mL"}, {"measurement": "MIC", "setting": "APEC O18", "result": 1, "unit": "µg/mL"}, {"measurement": "MIC", "setting": "APEC O1", "result": 0.5, "unit": "µg/mL"}, {"measurement": "MIC", "setting": "APEC O78 [1]", "result": 0.25, "unit": "µg/mL"}, {"measurement": "MIC", "setting": "APEC O115", "result": 1, "unit": "µg/mL"}, {"measurement": "MIC", "setting": "APEC O78-53", "result": 0.5, "unit": "µg/mL"}, {"measurement": "MIC", "setting": "APEC O15", "result": 1, "unit": "µg/mL"}, {"measurement": "MIC", "setting": "APEC O2-211", "result": 4, "unit": "µg/mL"}, {"measurement": "MIC", "setting": "APEC O8", "result": 1, "unit": "µg/mL"}, {"measurement": "MIC", "setting": "APEC O109", "result": 0.5, "unit": "µg/mL"}, {"measurement": "MIC", "setting": "APEC O1-63", "result": 4, "unit": "µg/mL"}]}]}
